Results from article PMC4512978, “Synthesis and evaluation in rats of homologous series of [^18F]-labeled dopamine D2/3 receptor agonists based on the 2-aminomethylchroman scaffold as potential PET tracers” (EJNMMI Research, 2015).

System: D2/3R
Assay: Kinetic analysis of PET data (1TCM, 2TCM, Logan, SRTM);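 for 2TCM BPND change relative to control: Raclopride 1 mg/kg intravenous pretreatment versus saline controls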;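 for SRTM BPND change relative to control: Raclopride 1 mg/kg intravenous pretreatment versus saline controls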
Format: in vivo, Sprague-Dawley rats
Set-up: key to SRTM BPND / 1TCM BPND / 2TCM BPND (VT-based): BPND = VT(target)/VT(cerebellum) − 1 (or SRTM, cerebellum reference); SRTM BPND change relative to control / 1TCM BPND change relative to control / 2TCM BPND change relative to control / Logan BPND change relative to control: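 Raclopride 1 mg/kg intravenous pretreatment versus saline controls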; 1TCM VT / 2TCM VT: unit not given here
Protocol: Kinetic analysis is described using the nomenclature proposed by Innis et al.. ROI TACs of [^18F]FEt-AMC13 were analyzed with one-tissue and two-tissue compartmental models of reversible binding (1TCM and 2TCM, respectively) to obtain individual rate constants. From these, the regional distribution volumes (VT) were calculated and compared to those obtained with Logan graphical analysis. Binding potentials (BPND) were calculated from the distribution ratios as VT (target) / VT (cerebellum) – 1, or estimated with the simplified reference tissue model (SRTM) using the cerebellum as reference region.
Metabolite-corrected plasma-derived arterial input function and whole blood time-activity curve were used for Logan, 1TCM, and 2TCM analyses. Fractional cerebral blood volume was set to 3.6 % [27]. For one rat in the raclopride-treated group, no input curves could be obtained; therefore, its PET data were only analyzed with SRTM.
Degree of D2/3R-specific binding of the tracers was characterized by BPND (as given above) or the specific binding ratio (SBR) given as target region activity/cerebellar activity - 1. Both were calculated under control conditions and in response to the raclopride challenge.

[1] = Brainstem, raclopride, listed as [18F]FEt-AMC13
[2] = Cortex, raclopride, listed as [18F]FEt-AMC13
[3] = Hippocampus, raclopride, listed as [18F]FEt-AMC13
[4] = Hypothalamus, control rat A, SD could not be estimated

## Oc1ccc2c(c1)O[C@@H](CNCc1ccc(OCC[18F])cc1)CC2 [[^18F]FEt-AMC13]
1 mg/kg raclopride, depending on the kinetic model
  fall of striatal BPND: 18–27%
Brainstem, control
  1TCM BPND: 0.21±0.03
  1TCM VT: 5.67±0.33
  2TCM BPND (VT-based): 0.22 ± 0.02
  2TCM VT: 6.17±0.52
  Logan BPND: 0.21±0.02
  Logan VT: 6.12±0.57
  SRTM BPND: 0.18 ± 0.04
Brainstem, control rat A
  1TCM K1: 0.63 ± 0.04 mL/g/min
  1TCM k2: 0.10 ± 0.02 min⁻¹
  2TCM K1: 2.03 ± 0.40 mL/g/min
  2TCM k2: 3.53 ± 1.32 min⁻¹
  2TCM k3: 1.05 ± 0.19 min⁻¹
  2TCM k4: 0.10 ± 0.01 min⁻¹
Brainstem, control rat B
  1TCM K1: 0.60 ± 0.03 mL/g/min
  1TCM k2: 0.11 ± 0.01 min⁻¹
  2TCM K1: 0.96 ± 0.11 mL/g/min
  2TCM k2: 0.89 ± 0.30 min⁻¹
  2TCM k3: 0.72 ± 0.83 min⁻¹
  2TCM k4: 0.15 ± 1.20 min⁻¹
Brainstem, control rat C
  1TCM K1: 0.68 ± 0.02 mL/g/min
  1TCM k2: 0.12 ± 0.01 min⁻¹
  2TCM K1: 1.11 ± 0.22 mL/g/min
  2TCM k2: 1.19 ± 0.59 min⁻¹
  2TCM k3: 1.10 ± 1.86 min⁻¹
  2TCM k4: 0.21 ± 2.66 min⁻¹
Brainstem, control rat D
  1TCM K1: 0.71 ± 0.03 mL/g/min
  1TCM k2: 0.13 ± 0.01 min⁻¹
  2TCM K1: 4.75 ± 5.87 mL/g/min
  2TCM k2: 19.6 ± 19.9 min⁻¹
  2TCM k3: 2.79 ± 15.04 min⁻¹
  2TCM k4: 0.12 ± 37.81 min⁻¹
Brainstem, raclopride
  1TCM BPND: 0.13±0.03
  1TCM BPND change relative to control: -41%
  1TCM VT: 4.99±0.56
  2TCM BPND (VT-based): 0.10 ± 0.02
  2TCM BPND change relative to control: −53%
  2TCM VT: 5.46±0.36
  Logan BPND: 0.11±0.02
  Logan BPND change relative to control: -47%
  Logan VT: 5.53±0.26
  SRTM BPND: 0.07 ± 0.03
  SRTM BPND change relative to control: −60%
[1]
  2TCM BPND (VT-based): 0.10±0.02
  2TCM BPND change relative to control: -53%
  SRTM BPND: 0.07±0.03
  SRTM BPND change relative to control: –60%
Cerebellum, control
  1TCM VT: 4.68±0.34
  2TCM VT: 5.08±0.49
  Logan VT: 5.06±0.53
Cerebellum, control rat A
  1TCM K1: 0.57 ± 0.04 mL/g/min
  1TCM k2: 0.11 ± 0.02 min⁻¹
  2TCM K1: 2.10 ± 0.32 mL/g/min
  2TCM k2: 4.90 ± 1.30 min⁻¹
  2TCM k3: 1.23 ± 0.13 min⁻¹
  2TCM k4: 0.10 ± 0.005 min⁻¹
Cerebellum, control rat B
  1TCM K1: 0.61 ± 0.02 mL/g/min
  1TCM k2: 0.13 ± 0.01 min⁻¹
  2TCM K1: 0.81 ± 0.05 mL/g/min
  2TCM k2: 0.53 ± 0.24 min⁻¹
  2TCM k3: 0.46 ± 0.55 min⁻¹
  2TCM k4: 0.20 ± 0.71 min⁻¹
Cerebellum, control rat C
  1TCM K1: 0.62 ± 0.01 mL/g/min
  1TCM k2: 0.13 ± 0.01 min⁻¹
  2TCM K1: 0.86 ± 0.21 mL/g/min
  2TCM k2: 1.13 ± 1.45 min⁻¹
  2TCM k3: 1.84 ± 1.78 min⁻¹
  2TCM k4: 0.34 ± 0.12 min⁻¹
Cerebellum, control rat D
  1TCM K1: 0.68 ± 0.03 mL/g/min
  1TCM k2: 0.16 ± 0.02 min⁻¹
  2TCM K1: 48.7 ± 819.7 mL/g/min
  2TCM k2: 298 ± 5152 min⁻¹
  2TCM k3: 3.55 ± 1.05 min⁻¹
  2TCM k4: 0.13 ± 0.03 min⁻¹
Cerebellum, raclopride
  1TCM VT: 4.43±0.40
  2TCM VT: 4.96±0.44
  Logan VT: 4.99±0.30
Cortex, control
  1TCM BPND: 0.18±0.05
  1TCM VT: 5.53±0.38
  2TCM BPND (VT-based): 0.13 ± 0.04
  2TCM VT: 5.75±0.45
  Logan BPND: 0.13±0.03
  Logan VT: 5.69±0.49
  SRTM BPND: 0.11 ± 0.03
Cortex, control rat A
  1TCM K1: 0.37 ± 0.02 mL/g/min
  1TCM k2: 0.06 ± 0.01 min⁻¹
  2TCM K1: 1.68 ± 0.46 mL/g/min
  2TCM k2: 7.83 ± 1.43 min⁻¹
  2TCM k3: 1.84 ± 0.62 min⁻¹
  2TCM k4: 0.06 ± 4.47 min⁻¹
Cortex, control rat B
  1TCM K1: 0.47 ± 0.02 mL/g/min
  1TCM k2: 0.09 ± 0.01 min⁻¹
  2TCM K1: 0.66 ± 0.04 mL/g/min
  2TCM k2: 0.64 ± 0.21 min⁻¹
  2TCM k3: 0.72 ± 0.24 min⁻¹
  2TCM k4: 0.16 ± 0.02 min⁻¹
Cortex, control rat C
  1TCM K1: 0.41 ± 0.01 mL/g/min
  1TCM k2: 0.07 ± 0.002 min⁻¹
  2TCM K1: 0.43 ± 0.12 mL/g/min
  2TCM k2: 0.19 ± 1.58 min⁻¹
  2TCM k3: 1.50 ± 19.49 min⁻¹
  2TCM k4: 1.00 ± 1.64 min⁻¹
Cortex, control rat D
  1TCM K1: 0.47 ± 0.02 mL/g/min
  1TCM k2: 0.09 ± 0.01 min⁻¹
  2TCM K1: 1.46 ± 0.45 mL/g/min
  2TCM k2: 6.65 ± 0.77 min⁻¹
  2TCM k3: 2.62 ± 1.18 min⁻¹
  2TCM k4: 0.11 ± 6.33 min⁻¹
Cortex, raclopride
  1TCM BPND: 0.17±0.05
  1TCM BPND change relative to control: -9%
  1TCM VT: 5.17±0.60
  2TCM BPND (VT-based): 0.10 ± 0.02
  2TCM BPND change relative to control: −27%
  2TCM VT: 5.45±0.52
  Logan BPND: 0.09±0.03
  Logan BPND change relative to control: -32%
  Logan VT: 5.42±0.44
  SRTM BPND: 0.08 ± 0.02
  SRTM BPND change relative to control: −24%
[2]
  2TCM BPND (VT-based): 0.10±0.02
  2TCM BPND change relative to control: -27%
  SRTM BPND: 0.08±0.02
  SRTM BPND change relative to control: –24%
Hippocampus, control
  1TCM BPND: 0.35±0.11
  1TCM VT: 6.34±0.71
  2TCM BPND (VT-based): 0.30 ± 0.07
  2TCM VT: 6.62±0.86
  Logan BPND: 0.28±0.04
  Logan VT: 6.49±0.88
  SRTM BPND: 0.26 ± 0.04
Hippocampus, control rat A
  1TCM K1: 0.41 ± 0.02 mL/g/min
  1TCM k2: 0.06 ± 0.01 min⁻¹
  2TCM K1: 2.21 ± 1.25 mL/g/min
  2TCM k2: 8.56 ± 3.62 min⁻¹
  2TCM k3: 1.60 ± 2.24 min⁻¹
  2TCM k4: 0.05 ± 8.88 min⁻¹
Hippocampus, control rat B
  1TCM K1: 0.51 ± 0.02 mL/g/min
  1TCM k2: 0.08 ± 0.01 min⁻¹
  2TCM K1: 0.71 ± 0.07 mL/g/min
  2TCM k2: 0.50 ± 0.23 min⁻¹
  2TCM k3: 0.50 ± 0.27 min⁻¹
  2TCM k4: 0.14 ± 0.03 min⁻¹
Hippocampus, control rat C
  1TCM K1: 0.46 ± 0.01 mL/g/min
  1TCM k2: 0.08 ± 0.004 min⁻¹
  2TCM K1: 0.60 ± 0.12 mL/g/min
  2TCM k2: 0.57 ± 0.77 min⁻¹
  2TCM k3: 1.17 ± 1.34 min⁻¹
  2TCM k4: 0.24 ± 0.09 min⁻¹
Hippocampus, control rat D
  1TCM K1: 0.48 ± 0.02 mL/g/min
  1TCM k2: 0.08 ± 0.01 min⁻¹
  2TCM K1: 101 ± 14615 mL/g/min
  2TCM k2: 1246 ± 181990 min⁻¹
  2TCM k3: 5.49 ± 4.23 min⁻¹
  2TCM k4: 0.07 ± 0.05 min⁻¹
Hippocampus, raclopride
  1TCM BPND: 0.33±0.09
  1TCM BPND change relative to control: -8%
  1TCM VT: 5.88±0.56
  2TCM BPND (VT-based): 0.26 ± 0.06
  2TCM BPND change relative to control: −13%
  2TCM VT: 6.27±0.63
  Logan BPND: 0.25±0.05
  Logan BPND change relative to control: -10%
  Logan VT: 6.25±0.56
  SRTM BPND: 0.23 ± 0.05
  SRTM BPND change relative to control: −13%
[3]
  2TCM BPND (VT-based): 0.26±0.06
  2TCM BPND change relative to control: -13%
  SRTM BPND: 0.23±0.05
  SRTM BPND change relative to control: –13%
Hypothalamus, control
  1TCM BPND: 0.25±0.04
  1TCM VT: 5.86±0.60
  2TCM BPND (VT-based): 0.22 ± 0.03
  2TCM VT: 6.20±0.55
  Logan BPND: 0.21±0.04
  Logan VT: 6.10±0.44
  SRTM BPND: 0.21 ± 0.03
Hypothalamus, control rat A
  1TCM K1: 0.40 ± 0.03 mL/g/min
  1TCM k2: 0.06 ± 0.01 min⁻¹
[4]
  2TCM K1: 273 mL/g/min
  2TCM k2: 1355 min⁻¹
  2TCM k3: 1.65 min⁻¹
  2TCM k4: 0.05 min⁻¹
Hypothalamus, control rat B
  1TCM K1: 0.53 ± 0.03 mL/g/min
  1TCM k2: 0.09 ± 0.01 min⁻¹
  2TCM K1: 1.17 ± 0.88 mL/g/min
  2TCM k2: 3.45 ± 1.30 min⁻¹
  2TCM k3: 2.22 ± 6.73 min⁻¹
  2TCM k4: 0.13 ± 14.19 min⁻¹
Hypothalamus, control rat C
  1TCM K1: 0.50 ± 0.02 mL/g/min
  1TCM k2: 0.08 ± 0.01 min⁻¹
  2TCM K1: 0.64 ± 0.24 mL/g/min
  2TCM k2: 0.63 ± 1.60 min⁻¹
  2TCM k3: 1.37 ± 2.85 min⁻¹
  2TCM k4: 0.27 ± 0.20 min⁻¹
Hypothalamus, control rat D
  1TCM K1: 0.59 ± 0.04 mL/g/min
  1TCM k2: 0.12 ± 0.02 min⁻¹
  2TCM K1: 680 ± 116990 mL/g/min
  2TCM k2: 3105 ± 534810 min⁻¹
  2TCM k3: 2.16 ± 0.48 min⁻¹
